The text below walks through data of US7034028B2, “Treatment of inflammatory disorders” (Arakis Ltd., priority 2000, dated 2006).

In one experiment the test system is bovine nasal cartilage. The experiment can be described thus: Ex vivo IL-2-stimulated bovine nasal cartilage destruction model. It is filed as cell-based. More on the design: Inhibition of IL-2-stimulated bovine nasal cartilage destruction: unit not given here. The conditions noted are these: for inhibition at 1 µM / inhibition at 10 µM / inhibition at 100 µM: Bos taurus, read-out: Inhibition of IL-2-stimulated bovine nasal cartilage destruction.

For the next experiment, the system named is TNF. Put plainly: Cytokine inhibition profile: TNF. The conditions noted are these: read-out: Inhibition Profile (IC50) TNF. It is filed as cell-based.
For a further experiment, the system named is IL-1. The experiment can be described thus: Cytokine inhibition profile: IL-1. It is filed as cell-based. The conditions noted are these: read-out: Inhibition Profile (IC50) IL-1.
The next experiment has as its system IL-6. Put plainly: Cytokine inhibition profile: IL-6. The experiment is classed as cell-based. The conditions noted are these: read-out: Inhibition Profile (IC50) IL-6.
In a further experiment the test system is Interleukin-8 (IL-8). The experiment can be described thus: Cytokine inhibition profile: IL-8. The experiment is classed as cell-based.
For the next experiment, the system named is IL-2. Put plainly: Cytokine inhibition profile: IL-2. It is filed as cell-based. The conditions noted are these: read-out: Inhibition Profile (IC50) IL-2.
The subject of the next experiment is T-cell proliferation. Put plainly: T-cell (lymphocyte) proliferation inhibition. It is filed as cell-based, human.
In the next experiment the test system is IFN gamma. Put plainly: Cytokine inhibition profile: IFN gamma. The experiment is classed as cell-based. The conditions noted are these: read-out: Inhibition Profile (IC50) IFN gamma.
Where [1] appears, read: read-out: Inhibition Profile (IC50) T-cell proliferation.

Like-named read-outs stand apart in the source and are kept apart here.

For `OC(c1cc(C(F)(F)F)nc2c(C(F)(F)F)cccc12)C1CCCCN1` (racemic) [(+/−) Mefloquine, mefloquine], the “Inhibition of IL-2-stimulated bovine nasal cartilage destruction” value with bovine nasal cartilage (10 μM) was 20.
`OC(c1cc(C(F)(F)F)nc2c(C(F)(F)F)cccc12)C1CCCCN1` (single isomer, unassigned; (-)) [(−)Mefloquine]: the IC50 in the experiment with TNF was determined as 18 µM; with IL-1 it was 79 µM; in the experiment with IL-6 it was 43 µM; in the experiment with Interleukin-8 (IL-8), 63 µM; with IL-2, 17 µM; in the experiment with T-cell proliferation (setting [1]), 10 µM. The IC50 in the experiment on IFN gamma was 18 µM. Further, the “Inhibition of IL-2-stimulated bovine nasal cartilage destruction” value stood at 37 with bovine nasal cartilage (1 μM), 45 in the experiment with bovine nasal cartilage (10 μM) and 82 with bovine nasal cartilage (100 μM).
Regarding `O[C@H](c1cc(C(F)(F)F)nc2c(C(F)(F)F)cccc12)[C@@H]1CCCCN1` [(+)Mefloquine, (+)-Erythro-mefloquine], the IC50 with TNF was 24 µM; with IL-1 it was 68 µM; in the experiment on IL-6, 53 µM; with Interleukin-8 (IL-8), 41 µM; with IL-2 it was 17 µM; in the experiment on T-cell proliferation (setting [1]), 11 µM. The IC50 in the experiment with IFN gamma was 17 µM. In addition, in the experiment with T-cell proliferation, the “Suppression of human lymphocyte proliferation, in words” value is listed as “suppresses”. The “Inhibition of IL-2-stimulated bovine nasal cartilage destruction” value in the experiment with bovine nasal cartilage (1 μM) stood at 32; in the experiment with bovine nasal cartilage (10 μM) it was 44; in the experiment with bovine nasal cartilage (100 μM), 71.
Usually inhibition stands for the relative decrease from the control value, in per cent. As for `CCN(CC)CCCC(C)Nc1ccnc2cc(Cl)ccc12` (stereo not shown) [Chloroquine, chloroquine], the IC50 with TNF stood at 21 µM; in the experiment on IL-1, 6.3 µM; with IL-6 it was 81 µM; in the experiment with IL-2, 66 µM; in the experiment with T-cell proliferation (Homo sapiens, T-cell, read-out: Inhibition Profile (IC50) T-cell proliferation) it was 13 µM; in the experiment on IFN gamma it was 63 µM. The “Inhibition Profile (IC50) IL-8” value in the experiment on Interleukin-8 (IL-8) is recorded as “Inactive”. Besides, the inhibition at 1 µM with bovine nasal cartilage is 3%. Further, the inhibition at 10 µM in the experiment on bovine nasal cartilage worked out at 6%. Further, the inhibition at 100 µM in the experiment with bovine nasal cartilage was found to be 35%.
With `CCN(CCO)CCCC(C)Nc1ccnc2cc(Cl)ccc12` (stereo not shown) [Hydroxychloroquine, hydroxychloroquine], the IC50 in the experiment on TNF was found to be 32.2 µM; with IL-1 it was 21 µM; in the experiment on IL-6 it was 90 µM; in the experiment on IL-2 it was 94 µM; in the experiment with T-cell proliferation (Homo sapiens, T-cell; read-out: Inhibition Profile (IC50) T-cell proliferation), 16 µM; with IFN gamma it was 94 µM. The “Activity against Interleukin-8 (IL-8), in words” value in the experiment with Interleukin-8 (IL-8) is “inactive”. Besides, in the experiment with Interleukin-8 (IL-8), the “Inhibition Profile (IC50) IL-8” value was “Inactive”. Moreover, the inhibition at 1 µM in the experiment with bovine nasal cartilage (1 μM) came out at 4%. Further, the inhibition at 10 µM in the experiment on bovine nasal cartilage (10 μM) stood at 3%. Further, in the experiment on bovine nasal cartilage (100 μM), the inhibition at 100 µM was found to be 36%.
